Assay results published in paper PMC9145741, “Bioprospecting for Thermozymes and Characterization of a Novel Lipolytic Thermozyme Belonging to the SGNH/GDSL Family of Hydrolases” (International Journal of Molecular Sciences, 2022).

Tested on: T1, LipB12_A11
T1 construct: EcoRV fosmid fragment subcloned in pJET1.2, E. coli T7 Express; no tag mentioned; heat step, ammonium sulphate, Superdex 75
Assay: p-nitrophenol release at […] nm, Michaelis-Menten non-linear regression
Assay type: biochemical
Details: 60 °C, pH 9; 0.002-2 mM substrate

CCCCCCCCCCCC(=O)Oc1ccc([N+](=O)[O-])cc1 [pNP-laurate]
Km: 17.3 ± 3.51 µM
